Values of other authors as cited in patent publication CN104546722A, “米铂脂质体和制法” (priority 2015, dated 2015).
Read-outs that look alike come from different tables or passages of the source.

Assays:
[1] = after administration
[2] = test system: hepatocellular carcinoma patients (肝细胞癌患者); conditions: human, in vivo
[3] = test system: hepatocellular carcinoma (肝细胞癌)
[4] = test system: human liver cancer cell line Li-7 (人肝癌细胞株Li-7)
[5] = test system: hepatocellular carcinoma patients (肝细胞癌患者); conditions: human, in vivo; remark: listed apart in the source
[6] = test system: rodent liver cancer cell line AH109A (鼠肝癌细胞株AH109A)
[7] = not given; remark: listed apart in the source
[8] = test system: liver cancer patients (肝癌患者)
[9] = test system: hepatocellular carcinoma patients (肝细胞癌患者)

## CCCCCCCCCCCCCC(=O)[O-].CCCCCCCCCCCCCC(=O)[O-].N[C@@H]1CCCC[C@H]1N.O.[Pt+2] [米铂一水合物, (SP-4-2)-[(1R,2R)-1,2环己二氨-N,N′]二(十四酸-O)合铂一水合物]
[1]
  total platinum concentration in blood: 极低,可长时间维持
[2]
  1-year survival rate: 63.6%
  2-year survival rate: 38.2%
[3]; almost all, after administration
  time to disappearance of adverse reactions: 4~6 weeks
[3]; hepatocellular carcinoma
  CR rate (therapeutic effect, TE): 60%
[4]; 20 mg/mL in suspension
  tumour cell proliferation rate: 明显降低
[4]; single dose of suspension
  antitumour effect: 剂量相关地抗肿瘤作用
[4]; suspension
  inhibition of cancer cell proliferation: 以剂量相关方式抑制癌细胞增殖
[5]
  1-year survival rate: 90.1%
  2-year survival rate: 75.9%
  3-year survival rate: 58.4%
  efficacy compared with 净司他丁斯酯: 疗效相当
  safety compared with 净司他丁斯酯: 更安全
About 1 year after administration
  Cmax, reduced to: ~17%
After administration, (ng)
  total platinum concentration in blood (level): 极低,属微量且维持时间长
[6]; 20 mg/mL in suspension
  tumour cell proliferation rate: 明显降低
[6]; single dose of suspension
  antitumour effect: 剂量相关地抗肿瘤作用
[6]; suspension
  inhibition of cancer cell proliferation: 以剂量相关方式抑制癌细胞增殖
[7]; after first administration
  total platinum mass concentration in blood (mean): 9.6 ng/mL
[7]; after second administration
  total platinum mass concentration in blood (mean): 12.9 ng/mL

## CCCCCCCCCCCCCC(=O)[O-].CCCCCCCCCCCCCC(=O)[O-].N[C@@H]1CCCC[C@H]1N.[Pt+2] [米铂, 顺-[(1R,2R)-1,2-环己二胺-N,N’]双十四酰氧基合铂]
[8]; 9/16 patients
  CR rate: 56%
[8]; 16 patients
  tolerability: 耐受性好
[9]; 22/83 patients
  TEV (disappearance of mass or 100% tumour necrosis rate): 26.5%
[9]; from administration
  hepatic vascular injury: 未发生肝血管损伤
[9]; human, in vivo
  2-year survival rate: 75.9%
  3-year survival rate: 58.4%
